According to patent US12679807B2 (MERCK SHARP & DOHME LLC, priority 2020, dated 2026):

Target: T1, GCS enzyme contained within Golgi preparations isolated from human A375 malignant melanoma skin cells (Homo sapiens, UniProt Q16739)
T1 construct: endogenous levels of GCS enzyme contained within Golgi preparations isolated from human A375 malignant melanoma skin cells; endogenous in cells; host or cells: A375 human malignant melanoma cells (crude Golgi preparation)
T1 sequence (Q16739 1-394): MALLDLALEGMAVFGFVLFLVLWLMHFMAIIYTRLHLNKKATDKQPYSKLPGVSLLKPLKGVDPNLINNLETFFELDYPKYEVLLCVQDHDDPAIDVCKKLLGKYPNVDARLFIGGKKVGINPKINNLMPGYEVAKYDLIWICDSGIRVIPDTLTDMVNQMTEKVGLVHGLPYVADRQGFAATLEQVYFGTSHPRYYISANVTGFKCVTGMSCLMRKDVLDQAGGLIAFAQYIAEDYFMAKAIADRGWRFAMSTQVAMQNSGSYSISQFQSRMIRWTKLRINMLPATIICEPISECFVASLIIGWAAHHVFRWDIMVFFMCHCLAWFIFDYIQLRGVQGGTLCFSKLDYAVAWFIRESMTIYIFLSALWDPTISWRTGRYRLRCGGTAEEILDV
Experiment: UDP-Glo glucosylceramide synthase biochemical assay
Conditions: crude Golgi preparation from A375 cells; C6 ceramide and UDP-glucose substrates; 20 h incubation at room temperature; UDP detected by luminescence
In short: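 Endogenous enzyme in A375 Golgi preparations (1.5 μg total protein) was preincubated 30 min with compound, then reacted 20 h at room temperature with UDP-glucose and ceramide.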

| Structure (SMILES) | EC50 [nM] |
| --- | --- |
| Cc1c(CO)noc1-c1ccc(-c2cccc3c2C(=O)N([C@H](C2CC2)C(C)(C)O)C3)cc1 [Compound 96, 2-[(1R)-1-cyclopropyl-2-hydroxy-2-methyl-propyl]-7-[4-[3-(hydroxymethyl)-4-methyl-isoxazol-5-yl]phenyl]isoindolin-1-one] | 1.4 |
| COc1cc(C#N)nc(-c2cccc3c2C(=O)N([C@H](C2CC2)C(C)(C)O)C3)c1 [Compound 97, (R)-6-(2-(1-cyclopropyl-2-hydroxy-2-methylpropyl)-3-oxoisoindolin-4-yl)-4-methoxypicolinonitrile] | 12 |
| CCOc1ccccc1C(=O)Nc1cccc2c1C(=O)N([C@H](C)C(C)(C)O)C2 [Compound 99, (R)-2-Ethoxy-N-(2-(3-hydroxy-3-methylbutan-2-yl)-3-oxoisoindolin-4-yl)benzamide] | 140 |
| CCOc1ccccc1C(=O)Nc1cccc2c1C(=O)N([C@@H](CO)C(C)C)C2 [Compound 100, (R)-2-ethoxy-N-(2-(1-hydroxy-3-methylbutan-2-yl)-3-oxoisoindolin-4-yl)benzamide] | 150 |
| CCOc1ccccc1C(=O)Nc1cccc2c1C(=O)N([C@@H]1CCCC[C@@H]1O)C2 [Compound 103, 2-ethoxy-N-(2-((1R,2S)-2-hydroxycyclohexyl)-3-oxoisoindolin-4-yl)benzamide] | 450 |
| CCOc1ccccc1C(=O)Nc1cccc2c1C(=O)N(CC1(O)CCC1)C2 [Compound 105, 2-ethoxy-N-(2-((1-hydroxycyclobutyl)methyl)-3-oxoisoindolin-4-yl)benzamide] | 650 |
| CCOc1ccccc1C(=O)Nc1cccc2c1C(=O)N(CC1(O)COC1)C2 [Compound 106, 2-ethoxy-N-(2-((3-hydroxyoxetan-3-yl)methyl)-3-oxoisoindolin-4-yl)benzamide] | 720 |
| Cc1ccc(Cl)c(C(=O)Nc2cccc3c2C(=O)N([C@@H](CO)C(C)C)C3)c1F [Compound 122, (R)-6-chloro-2-fluoro-N-(2-(1-hydroxy-3-methylbutan-2-yl)-3-oxoisoindolin-4-yl)-3-methylbenzamide] | 18 |
| C[C@@H](N1Cc2cccc(NC(=O)c3c(Cl)ccc(F)c3Cl)c2C1=O)C(C)(C)O [Compound 123, (R)-2,6-dichloro-3-fluoro-N-(2-(3-hydroxy-3-methylbutan-2-yl)-3-oxoisoindolin-4-yl)benzamide] | 26 |
| CC(C)[C@H](CO)N1Cc2cccc(NC(=O)c3c(Cl)ccc(F)c3Cl)c2C1=O [Compound 124, (R)-2,6-dichloro-3-fluoro-N-(2-(1-hydroxy-3-methylbutan-2-yl)-3-oxoisoindolin-4-yl)benzamide] | 26 |
| CC(C)[C@H](CO)N1Cc2cccc(NC(=O)c3nc(C(F)(F)F)ccc3Cl)c2C1=O [Compound 125, (R)-3-chloro-N-(2-(1-hydroxy-3-methylbutan-2-yl)-3-oxoisoindolin-4-yl)-6-(trifluoromethyl)picolinamide] | 30 |
| C[C@@H](N1Cc2cccc(NC(=O)c3c(C(F)(F)F)cnc4ccccc34)c2C1=O)C(C)(C)O [Compound 127, (R)-N-(2-(3-hydroxy-3-methylbutan-2-yl)-3-oxoisoindolin-4-yl)-3-(trifluoromethyl)quinoline-4-carboxamide] | 38 |
| C[C@@H](N1Cc2cccc(NC(=O)c3nc(C(F)(F)F)ccc3Cl)c2C1=O)C(C)(C)O [Compound 129, (R)-3-chloro-N-(2-(3-hydroxy-3-methylbutan-2-yl)-3-oxoisoindolin-4-yl)-6-(trifluoromethyl)picolinamide] | 38 |
| O=C(Nc1cccc2c1C(=O)N(CC1CC1)C2)c1c(C(F)(F)F)cnc2ccccc12 [Compound 130, N-(2-(cyclopropylmethyl)-3-oxoisoindolin-4-yl)-3-(trifluoromethyl)quinoline-4-carboxamide] | 40 |
| CC(C)[C@H](CO)N1Cc2cccc(NC(=O)c3nc(Cl)ccc3C(F)(F)F)c2C1=O [Compound 132, (R)-6-chloro-N-(2-(1-hydroxy-3-methylbutan-2-yl)-3-oxoisoindolin-4-yl)-3-(trifluoromethyl)picolinamide] | 46 |
| COc1ccc2ncc(F)c(C(=O)Nc3cccc4c3C(=O)N(CC3CC3)C4)c2n1 [Compound 135, N-(2-(cyclopropylmethyl)-3-oxoisoindolin-4-yl)-3-fluoro-6-methoxy-1,5-naphthyridine-4-carboxamide] | 64 |
| C[C@@H](C1CC1)N1Cc2cccc(NC(=O)c3c(Cl)cnc4c3OCO4)c2C1=O [Compound 137, (S)-6-chloro-N-(2-(1-cyclopropylethyl)-3-oxoisoindolin-4-yl)-[1,3]dioxolo[4,5-b]pyridine-7-carboxamide] | 77 |
| CCOc1ncccc1C(=O)Nc1cccc2c1C(=O)N([C@H](C)C(C)(C)O)C2 [Compound 138, (R)-2-ethoxy-N-(2-(3-hydroxy-3-methylbutan-2-yl)-3-oxoisoindolin-4-yl)nicotinamide] | 88 |
| O=C(Nc1cccc2c1C(=O)N(CC1CC1)C2)c1c(Cl)cncc1Cl [Compound 139, 3,5-dichloro-N-(2-(cyclopropylmethyl)-3-oxoisoindolin-4-yl)isonicotinamide] | 120 |
| O=C(Nc1cc(Cl)cc2c1C(=O)N(CC1CC1)C2)c1ccnc2c1CCC2 [Compound 143, N-(6-chloro-2-(cyclopropylmethyl)-3-oxoisoindolin-4-yl)-6,7-dihydro-5H-cyclopenta[b]pyridine-4-carboxamide] | 180 |
| O=C(Nc1cccc2c1C(=O)N(CC1CC1)C2)c1ccnc2ccc(F)cc12 [Compound 144, N-(2-(cyclopropylmethyl)-3-oxoisoindolin-4-yl)-6-fluoroquinoline-4-carboxamide] | 190 |

More lines, now with the values ahead:

| EC50 [nM] | Structure (SMILES) |
| --- | --- |
| 43 | CCOc1ccccc1C(=O)Nc1cccc2c1C(=O)N(C(C1CC1)C1CC1)C2 [Compound 98, N-(2-(Dicyclopropylmethyl)-3-oxoisoindolin-4-yl)-2-ethoxybenzamide] |
| 260 | CCOc1ccccc1C(=O)Nc1cccc2c1C(=O)N([C@@H](CO)C1CC1)C2 [Compound 102, (R)-N-(2-(1-cyclopropyl-2-hydroxyethyl)-3-oxoisoindolin-4-yl)-2-ethoxybenzamide] |
| 2 | O=C(Nc1cccc2c1C(=O)N(C(C1CC1)C1CC1)C2)c1c(Br)ccc2c1OCO2 [Compound 109, 5-Bromo-N-(2-(dicyclopropylmethyl)-3-oxoisoindolin-4-yl)-benzo[d][1,3]dioxole-4-carboxamide] |
| 5.2 | Cc1cnc2c(c1C(=O)Nc1cccc3c1C(=O)N(C(C1CC1)C1CC1)C3)OCO2 [Compound 117, N-(2-(dicyclopropylmethyl)-3-oxoisoindolin-4-yl)-6-methyl-[1,3]dioxolo[4,5-b]pyridine-7-carboxamide] |
| 5.7 | O=C(Nc1cccc2c1C(=O)N(C(C1CC1)C1CC1)C2)c1c(Cl)cnc2c1OCO2 [Compound 118, 6-chloro-N-(2-(dicyclopropylmethyl)-3-oxoisoindolin-4-yl)-[1,3]dioxolo[4,5-b]pyridine-7-carboxamide] |
| 15 | O=C(Nc1cccc2c1C(=O)N(C(C1CC1)C1CC1)C2)c1ccnc2c1CCC2 [Compound 121, N-(2-(dicyclopropylmethyl)-3-oxoisoindolin-4-yl)-6,7-dihydro-5H-cyclopenta[b]pyridine-4-carboxamide] |
| 35 | Cn1ccc2c(C(=O)Nc3cccc4c3C(=O)N(C(C3CC3)C3CC3)C4)cccc21 [Compound 126, N-(2-(dicyclopropylmethyl)-3-oxoisoindolin-4-yl)-1-methyl-1H-indole-4-carboxamide] |
| 38 | O=C(Nc1cccc2c1C(=O)N(CC1CC1)C2)c1c2c(nc3ccccc13)CCC2 [Compound 128, N-(2-(cyclopropylmethyl)-3-oxoisoindolin-4-yl)-2,3-dihydro-1H-cyclopenta[b]quinoline-9-carboxamide] |
| 49 | Cn1cc2c(C(=O)Nc3cccc4c3C(=O)N(C(C3CC3)C3CC3)C4)cccc2n1 [Compound 133, N-(2-(dicyclopropylmethyl)-3-oxoisoindolin-4-yl)-2-methyl-2H-indazole-4-carboxamide] |
| 59 | Cc1cnc2c(c1C(=O)Nc1cccc3c1C(=O)N([C@@H](C)C1CC1)C3)OCO2 [Compound 134, (S)-N-(2-(1-cyclopropylethyl)-3-oxoisoindolin-4-yl)-6-methyl-[1,3]dioxolo[4,5-b]pyridine-7-carboxamide] |
| 120 | C[C@@H](C1CC1)N1Cc2cccc(NC(=O)c3ccnc4c3CCC4)c2C1=O [Compound 140, (S)-N-(2-(1-cyclopropylethyl)-3-oxoisoindolin-4-yl)-6,7-dihydro-5H-cyclopenta[b]pyridine-4-carboxamide] |
| 140 | O=C(Nc1cccc2c1C(=O)N(C(C1CC1)C1CC1)C2)c1ccnc2[nH]ccc12 [Compound 141, N-(2-(dicyclopropylmethyl)-3-oxoisoindolin-4-yl)-1H-pyrrolo[2,3-b]pyridine-4-carboxamide] |
| 140 | O=C(Nc1cccc2c1C(=O)N(C(C1CC1)C1CC1)C2)c1ccc(F)c2c1CCC2=O [Compound 142, N-(2-(dicyclopropylmethyl)-3-oxoisoindolin-4-yl)-7-fluoro-1-oxo-2,3-dihydro-1H-indene-4-carboxamide] |
| 260 | O=C(Nc1cccc2c1C(=O)N(C(C1CC1)C1CC1)C2)c1cccc2c1OCC2 [Compound 145, N-(2-(dicyclopropylmethyl)-3-oxoisoindolin-4-yl)-2,3-dihydrobenzofuran-7-carboxamide] |
